# Target: T1, P2X purinoceptor 7 (Homo sapiens, UniProt Q99572)
# T1 sequence (Q99572 whole entry): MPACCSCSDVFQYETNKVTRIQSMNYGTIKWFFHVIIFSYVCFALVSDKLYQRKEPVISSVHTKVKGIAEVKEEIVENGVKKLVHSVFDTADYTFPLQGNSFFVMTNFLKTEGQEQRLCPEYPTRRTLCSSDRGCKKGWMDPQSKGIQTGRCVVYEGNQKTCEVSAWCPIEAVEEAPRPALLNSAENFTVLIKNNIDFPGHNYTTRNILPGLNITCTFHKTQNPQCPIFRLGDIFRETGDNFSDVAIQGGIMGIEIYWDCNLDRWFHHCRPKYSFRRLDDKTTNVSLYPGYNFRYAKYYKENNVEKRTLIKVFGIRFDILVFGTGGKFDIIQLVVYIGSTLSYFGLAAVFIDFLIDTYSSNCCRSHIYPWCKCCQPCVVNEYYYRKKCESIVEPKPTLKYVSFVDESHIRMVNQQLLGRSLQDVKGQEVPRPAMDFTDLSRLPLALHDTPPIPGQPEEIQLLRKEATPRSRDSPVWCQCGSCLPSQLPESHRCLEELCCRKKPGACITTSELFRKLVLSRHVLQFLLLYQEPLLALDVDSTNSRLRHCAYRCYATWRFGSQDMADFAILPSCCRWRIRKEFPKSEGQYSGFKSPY
# Assay: Antagonist activity at P2X7 receptor (unknown origin)
Structure (SMILES),IC50 (read-out: pIC50 (converted)) [nM],IC50 (read-out: IC50) [nM]
Cc1nn(-c2ccccc2)c(C)c1NC(=O)NCc1ccc(F)cc1Cl,> 1000,–
O=C(CN1CC(=O)N(c2ccccc2)C1=O)NCc1ccc(F)cc1Cl,> 1000,–
Cc1nn(-c2ccccc2)c(C)c1Cc1nnc(Cc2ccc(Cl)cc2Cl)o1,> 1000,–
Clc1cccc(-n2ncnc2NCc2cccnc2)c1Cl,9.12,–
CN([C@@H](Cc1ccc(OS(=O)(=O)c2cccc3cnccc23)cc1)C(=O)N1CCN(Cc2ccccc2)CC1)S(=O)(=O)c1cccc2cnccc12,–,65.3
CN([C@@H](Cc1ccc(OS(=O)(=O)c2cccc3cnccc23)cc1)C(=O)N1CCN(c2ccccc2)CC1)S(=O)(=O)c1cccc2cnccc12,–,94.4
Cc1cccc(-c2nnnn2Cc2cccnc2)c1C,251,–
COc1cccc(-c2nnnn2Cc2cccnc2)c1OC,3980,–
O=C(NCC12CC3CC(C1)CC(CNC(=O)c1ccc(Cl)cc1Cl)(C3)C2)c1ccc(Cl)cc1Cl,126,–

# Continued, values first:
IC50 (read-out: pIC50 (converted)) [nM],IC50 (read-out: IC50) [nM],Structure (SMILES)
63.1,–,COc1ccc(Cl)c(NC(=O)CC23CC4CC(CC(C4)C2)C3)c1
398,–,CC(NC(=O)c1ccc(Cl)cc1)C12CC3CC(CC(C3)C1)C2 (stereo not drawn)
3980,–,CN(CC12CC3CC(CC(C3)C1)C2)C(=O)c1ccc(Cl)cc1
3980,–,CN(Cc1ccc(Cl)cc1)CC12CC3CC(CC(C3)C1)C2
501,–,O=C(CC12CC3CC(CC(C3)C1)C2)Nc1ccc(Cl)cc1
7.94,–,O=C(NCC12CC3CC(CC(C3)C1)C2)c1ccccc1Cl
398,–,O=C(NCC12CC3CC(CC(C3)C1)C2)c1ccc(Cl)cc1Cl
5.01,–,COc1cccc(NC(=O)CC23CC4CC(CC(C4)C2)C3)c1C
10,–,COc1ccc(C)c(NC(=O)CC23CC4CC(CC(C4)C2)C3)c1

# From ChEMBL document CHEMBL3108702, “Purinergic receptor P2X₇: a novel target for anti-inflammatory therapy” (Bioorg Med Chem, 2014)
